Experiments:
[1] = system: γD (W42D) aggregates in the SH-SY5Y cell; experiment: γD (W42D) aggregates in SH-SY5Y cells, live imaging and CellProfiler analysis; format: cell-based; settings: 20 uM, added every 4 hours for a total of 24 hours
Experimental: Cells were grown in a 12-well plate (1×10^5 cells per well) for 24 hours and transfected with γD (W42D) plasmid using EZtrans transfection reagent. 24 hours after transfection, Champ peptides RJK001 (final concentration of 20 uM) and RJK0012 (final concentration of 10 uM and 20 uM) were added into SH-SY5Y cell culture medium every 4 hours for a total of 24 hours. The effect of RJK001 and RJK012 polypeptide on the γD (W42D) aggregates in the SH-SY5Y cell mode were analyzed using a custom CellProfiler software. Briefly, cell bodies were then segmented and identified by the GFP fluorescence channel images and tracing outward to the limits of the cytoplasmic (using a diameter cutoff of 100-300 pixels). The cell bodies were used as masks to eliminate imaging artifacts outside of cell boundaries, such as background fluorescence or dead cells. After masking, punctate structures were enhanced by image processing for speckle-like features that were 10 pixels in diameter for SH-SY5Y cells and these punctate structures were then annotated as features such as γD (W42D) puncta. Finally, the total image area which was enclosed in each of the identified features (number of cell and punctate) was calculated and output to spreadsheets. At least 200 cells per sample were analyzed. […]
Granules screen and assay images were segmented and image features quantified using a custom CellProfiler and ImageJ software. […] The effect of RJK001 and RJK012 polypeptide on the γD ([…]) aggregates in the SH-SY5Y cell mode were analyzed using a custom CellProfiler software. Briefly, cell bodies were then segmented and identified by the GFP fluorescence channel images and tracing outward to the limits of the cytoplasmic (using a diameter cutoff of 100-300 pixels). The cell bodies were used as masks to eliminate imaging artifacts outside of cell boundaries, such as background fluorescence or dead cells. […] Finally, the total image area which was enclosed in each of the identified features (number of cell and punctate) was calculated and output to spreadsheets. At least 200 cells per sample were analyzed.

[2] = system: lens of cataract patients; experiment: Immersion of intact cataract lens, opacity by daily photographs; parameters: species or system human; settings: RJK001 0.5 mM in vehicle, 6 days, dark, room temperature
Experimental: Next, we directly immersed the cataract lens removed during the operation in the buffer solution of the control group and the RJK001 protein solution of the experimental group. During the immersion for up to 6 days, the lens of the patient was photographed and recorded every day. More detailed description of the method is: Collect two intact eye lenses from cataract patients. To each tube was added 400 μL solution of vehicle (0.1% NaN3, 0.3% triton X-100, containing 1:1000 protease inhibitor cocktail) or RJK001 (0.5 mM) in vehicle which covered the lens tissue completely. Lens tissue was incubated in these solutions for 6 days in the dark at room temperature. After sealing the 48-well plate with parafilm to avoid liquid evaporation. Observe the state of the lens under the stereoscope every day and take pictures to record.

TEPQEESEEEVEEPEERQQTPEVVPDDSGTFYDQTVSNDLE [RJK001, polypeptide with hydrophilic and hydrophobic segment, expressed in E. coli]
number of γD (W42D) aggregates in the SH-SY5Y cell [1]: reduced the number of γD (W42D) aggregates in the SH-SY5Y cell in a time-dependent manner until 12 hours
opacity of the lens [2]: reduced opacity of the lens of cataract patients

From patent US20250352611A1, “METHODS FOR TREATING CATARACTS USING POLYPEPTIDES” (REJUKON BIOPHARM INC., priority 2022, published 2025)
